Laboratory results as given in US20200315233A1, “METHODS AND COMPOSITIONS FOR TREATMENT OF HYPERCALCIURIA AND NEPHROLITHIASIS” (Ana Pharmaceuticals, Inc., priority 2016, published 2020).

Experiments:
[1] = system: patients with nephrolithiasis that were found to have hypercalciuria (>200 mg/24 hr); experiment: 24 hour urine calcium before and on vitamin K2 (MK7, MK4) in nephrolithiasis patients with hypercalciuria; assay type: in vivo, human
Description: Patients with hypercalciuria who were not on anticoagulants were routinely recommended vitamin K2 supplementation. […] All patients also received standard treatments for any other stone risk factor found in their work-up. As is routine, these patients were asked to repeat the 24 hr urine test, to evaluate response to treatment. […] This compared favorably to the 30-50% expected decrease in calcium when a thiazide diuretic is prescribed. See Martins, M. C., et al., Br J Urol, 1996. 78(2): p. 176-80. Furthermore, the calcium lowering effect of vitamin K2 was independent of the presence and treatment of other stone risk factors.
The average decrease in urine calcium in all eight patients was about 43%. […] (Table 1)

hypercalciuric subjects = details: cited from earlier work
[2] = MK7 100-150 mcg daily or bid for at least 3 weeks

## vitamin K2
[1]; cases 1, 2 and 3, vitamin K administered together with other agents
  decrease of urinary calcium excretion: > 50%
[1]; many patients, within a month of therapy
  decrease in urine calcium levels: more than 40%

## CC(C)=CCC/C(C)=C/CC/C(C)=C/CC/C(C)=C/CC/C(C)=C/CC/C(C)=C/CC/C(C)=C/CC1=C(C)C(=O)c2ccccc2C1=O [MK7]
[1]; Case 1, no prior regimen, before 650 mg/24 hr, on allopurinol 300 mg daily + MK7 100 mcg daily
  On Vitamin K Urine Calcium: 262 mg/24 hr
[1]; Case 1, on allopurinol 300 mg daily + MK7 100 mcg daily vs before vitamin K
  % diff of urine calcium: −60%
[1]; Case 2, MK7 50 mcg bid with KCitrate, MgOxide, MgCitrate, Vitamin B6, allopurinol vs before vitamin K
  % diff of urine calcium: −54%
[1]; Case 2, no prior regimen, before 312 mg/24 hr, on KCitrate 99 mg bid, MgOxide 90 mg bid, MgCitrate 90 mg bid, Vitamin B6 7.5 mg bid, allopurinol 300 mg daily, MK7 50 mcg bid
  On Vitamin K Urine Calcium: 145 mg/24 hr
[1]; Case 3, KCitrate 200 mg daily + MK7 120 mcg bid vs before vitamin K
  % diff of urine calcium: −51%
[1]; Case 3, no prior regimen, before 321 mg/24 hr, on KCitrate 200 mg daily + MK7 120 mcg bid
  On Vitamin K Urine Calcium: 158 mg/24 hr
[1]; Case 4, KCitrate 1080 mg tid + MK7 100 mcg bid vs before vitamin K
  % diff of urine calcium: −61%
[1]; Case 4, before KCitrate 1080 mg bid, 320 mg/24 hr, on KCitrate 1080 mg tid + MK7 100 mcg bid
  On Vitamin K Urine Calcium: 124 mg/24 hr
[1]; Case 5, before 326 mg/24 hr on allopurinol 300 mg daily, KCitrate, MgOxide, MgCitrate, Vitamin B6, on allopurinol 100 mg daily, same background + MK7 120 mcg bid
  On Vitamin K Urine Calcium: 225 mg/24 hr
[1]; Case 6, MK7 120 mcg bid with HCTZ, KCitrate, MgOxide, MgCitrate, Vitamin B6 vs before vitamin K
  % diff of urine calcium: +2%
[1]; Case 6, before HCTZ 12.5 mg daily, 332 mg/24 hr, on HCTZ 12.5 mg daily, KCitrate 99 mg bid, MgOxide 90 mg bid, MgCitrate 90 mg bid, Vitamin B6 7.5 mg bid, MK7 120 mcg bid
  On Vitamin K Urine Calcium: 340 mg/24 hr
[1]; Case 7, MK7 150 mcg daily added to stable background regimen vs before vitamin K
  % diff of urine calcium: −73%
[1]; Case 7, before 314 mg/24 hr on KCitrate, MgOxide, MgCitrate, Vitamin B6, HCTZ 25 mg bid, prednisone, vitD3, allopurinol, same regimen + MK7 150 mcg daily
  On Vitamin K Urine Calcium: 84 mg/24 hr
[1]; Case 8, MK7 120 mcg daily with CaCitrate, KCitrate, MgOxide, MgCitrate, Vitamin B6 vs before vitamin K
  % diff of urine calcium: −15%
[1]; Case 8, before CaCitrate 630 mg bid, 376 mg/24 hr, on CaCitrate 630 mg tid, KCitrate 99 mg bid, MgOxide 90 mg bid, MgCitrate 90 mg bid, Vitamin B6 7.5 mg bid, MK7 120 mcg daily
  On Vitamin K Urine Calcium: 321 mg/24 hr
[1]; F 74, CaCitrate 630 mg tid, KCitrate 99 mg bid, MgOxide 90 mg bid, MgCitrate 90 mg bid, Vitamin B6 7.5 mg bid, MK7 120 mcg daily
  Low Dose MK7 UCa: 321 mg/24 hr
[1]; [2]
  average decrease in urine calcium in all eight patients: about 43%
  increase in urinary calcium in the one patient that showed no response: 2%
  patients that exhibited a decrease in urinary calcium of greater than about 50%: 5 out of 8
[1]; mean of cases 1-8, on vitamin K (MK7) vs before
  % diff of urine calcium, mean: −43%
[1]; median of cases 1-8, on vitamin K (MK7) vs before
  % diff of urine calcium, median: −52%
[1]; seven of the eight patients, 24 hr urine
  average decrease in the excretion of calcium in the urine: 49%

## CC1=C(C/C=C(\C)CCC[C@H](C)CCC[C@H](C)CCCC(C)C)C(=O)c2ccccc2C1=O [vitamin K1]
Hypercalciuric subjects; hypercalciuric subjects
  subjects that had a decrease in urinary calcium: 60%
Hypercalciuric subjects; patients with a similar level of pre-treatment hypercalciuria
  average reduction in urinary calcium: less than 15%

## CC(C)=CCC/C(C)=C/CC/C(C)=C/CC/C(C)=C/CC1=C(C)C(=O)c2ccccc2C1=O [MK4]
[1]; F 74, MK4 15 mg daily vs MK7 120 mcg daily, same background
  % difference of urine calcium, high dose MK4 vs low dose MK7: −40%
[1]; F 74, same background regimen, changed from MK7 120 mcg daily to MK4 15 mg daily
  High Dose MK4 Urine Calcium: 191 mg/24 hr
[1]; one patient, change from MK7 120 mcg daily to MK4 15 mg daily
  additional decrease in 24 hour urine calcium excretion: about 40%
